Laboratory results published in patent US11285099B2, “Topical phenytoin for use in the treatment of peripheral neuropathic pain” (Topical Innovations B.V., priority 2016, dated 2022).
Entries after “also recorded” stand apart in the source; their conditions may differ. Where two headings read alike, the source gives them in different places.

Assays:
[1] = partition coefficient between octanol and water; cited from earlier work
[2] = tested on: peripheral neuropathic pain; assay: Patient cases: topical application on the skin, pain scored on the 11-point numerical rating scale (NRS); settings: individual patients of Cases 1-15
[3] = after oral administration; cited from earlier work
[4] = cited from earlier work
neuropathic pain = settings: in vivo; cited from earlier work

Row | Compound | Log P [1] | analgesic effect of other or earlier treatment in the patient's history [2] | tolerability of earlier treatment in the patient's history (words) [2] | also measured
1 | O=[N+]([O-])O[C@H]1CO[C@H]2[C@@H]1OC[C@H]2O[N+](=O)[O-] [Isosorbide dinitrate] | 1.3 |  |  | 
2 | CNC1(c2ccccc2Cl)CCCCC1=O (centres unmarked) [Ketamine] | 2.9 |  |  | 
3 | CN(C)C(=O)C(CCN1CCC(O)(c2ccc(Cl)cc2)CC1)(c1ccccc1)c1ccccc1 [Loperamide] | 5.5 |  |  | 
4 | CN(C)CCC=C1c2ccccc2CCc2ccccc21 [amitriptyline] |  | no effect; also recorded: did not have any analgesic effect | induced too many side effects | 
5 | O=C(O)Cc1ccccc1Nc1c(Cl)cccc1Cl [diclofenac] |  |  |  | Cmax. of diclofenac in corresponding tissue [3]: 1160 ng/mL
6 | CNCC[C@H](Oc1cccc2ccccc12)c1cccs1 [duloxetine] |  | did not have any effect | induced too many side effects | 
7 | NCC1(CC(=O)O)CCCCC1 [gabapentin] |  | did not have any effect |  | 
8 | O=C1NC(=O)C(c2ccccc2)(c2ccccc2)N1.[Na] [phenytoin sodium, sodium 5,5-diphenyl-2,4-imidazolidinedione] |  |  |  | solubility in water ([4]; 37° C., pH 10): about 2 mg/ml; maximum solubility in water ([4]; 37° C., pH 11.1): about 140 mg/mL; solubility in water ([4]; 37° C., pH range between 1 and 6): 35 to 40 µg/mL; pH at which dissolvable in water in significant amounts ([4]; according to US 2009/0022779): ≥ 12 pH
9 | CC(C)C[C@H](CN)CC(=O)O [pregabalin] |  | did not have any effect | induced too many side effects | day at which significant pain reduction or relief versus placebo was shown (neuropathic pain): 2 days; median onset of action (>30% pain reduction) (neuropathic pain): 36 days; tolerability of earlier treatment in the patient's history (words) ([2]; listed as Pregabalin): too much side effects
10 | COc1cccc(C2(O)CCCCC2CN(C)C)c1 (centres unmarked) [tramadol] |  | did not have any analgesic effect | induced too many side effects | 
